Read-outs that look alike come from different tables or passages of the source. Some results are limits rather than exact numbers.

As usually defined, the IC50 is the concentration that inhibits the measured activity by half.

For one assay, the target named is T1, SHP2 (full length) (Homo sapiens, UniProt Q06124).
T1 construct: SHP2 (full length, diluted to 100 pM final concentration in reaction buffer, BPS bioscience, US); purchased BPS bioscience, US
T1 sequence (Q06124 1-593): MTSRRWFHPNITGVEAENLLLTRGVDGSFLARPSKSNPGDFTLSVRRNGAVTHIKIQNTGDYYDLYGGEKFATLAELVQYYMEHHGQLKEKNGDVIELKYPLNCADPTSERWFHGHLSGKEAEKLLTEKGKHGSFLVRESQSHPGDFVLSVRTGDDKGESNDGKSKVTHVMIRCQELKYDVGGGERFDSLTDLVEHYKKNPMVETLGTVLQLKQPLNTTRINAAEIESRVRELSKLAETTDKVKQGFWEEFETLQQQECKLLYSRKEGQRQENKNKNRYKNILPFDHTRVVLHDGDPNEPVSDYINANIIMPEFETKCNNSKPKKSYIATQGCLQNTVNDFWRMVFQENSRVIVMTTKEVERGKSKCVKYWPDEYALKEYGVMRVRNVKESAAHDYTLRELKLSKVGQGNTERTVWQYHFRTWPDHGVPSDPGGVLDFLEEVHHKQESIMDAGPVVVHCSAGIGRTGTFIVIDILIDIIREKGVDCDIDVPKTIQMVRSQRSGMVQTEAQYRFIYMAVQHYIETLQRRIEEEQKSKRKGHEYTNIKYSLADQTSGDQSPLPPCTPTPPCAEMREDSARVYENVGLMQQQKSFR
Briefly: Phosphatase assay (PTPase assay) with DiFMUP substrate. Conditions: SHP2 activated with SHP2 activating peptide; DiFMUP 80 μM, 2 hours; fluorescence; read-out: IC50 (PTPase aS say). It counts as biochemical.

Assay [1] has as its system phospho-ERK in MIA PaCa2 or H358 cells. Briefly: Phospho-ERK assay (AlphaLisa). In kind it is cell-based. Conditions: MIA PaCa2 or H358 cells, compound incubated 1.5 hours, read-out: IC50 (p-ERK).

With `C[C@@H]1OCC2(CCN(c3cnc(Sc4ccc5ncn(Cc6ccccn6)c(=O)c5c4Cl)cn3)CC2)[C@@H]1N` [Example 88, 6-((5-((3S,4S)-4-amino-3-methyl-2-oxa-8-azaspiro[4.5]decan-8-yl)pyrazin-2-yl)thio)-5-chloro-3-(pyridin-2-ylmethyl)quinazolin-4(3H)-one], the IC50 at SHP2 (full length) is less than 3 nM; in assay [1] (1.5 h), less than 45 nM.
The like results for `Cn1c(N2CCC(C)(N)CC2)nc(N)c(Sc2ccc3nc[nH]c(=O)c3c2Cl)c1=O` [Example 29, 6-((4-amino-2-(4-amino-4-methylpiperidin-1-yl)-1-methyl-6-oxo-1,6-dihydropyrimidin-5-yl)thio)-5-chloroquinazolin-4(3H)-one] were, in that order, greater than 100 nM and greater than 1500 nM.
Turning to `CC(=O)NCCn1cnc2ccc(Sc3cnc(N4CCC5(CC4)CO[C@@H](C)[C@H]5N)cn3)c(Cl)c2c1=O` [Example 115], the IC50 was less than 3 nM on SHP2 (full length) and less than 45 nM in assay [1] (1.5 h).
For the molecule `C[C@@H]1OCC2(CCN(c3cnc(Sc4ccc5ncn(CCC(N)=O)c(=O)c5c4Cl)cn3)CC2)[C@@H]1N` [Example 98, 3-(6-((5-((3S,4S)-4-amino-3-methyl-2-oxa-8-azaspiro[4.5]decan-8-yl)pyrazin-2-yl)thio)-5-chloro-4-oxoquinazolin-3(4H)-yl)propanamide], the IC50 on SHP2 (full length) lay in the range of 3 to 100 nM; in assay [1] (1.5 h), 45 to 1500 nM.
As to `COCCn1cnc2ccc(Sc3cnc(N4CCC5(CC4)Cc4scnc4[C@H]5N)c(C(N)=O)n3)c(Cl)c2c1=O` [Example 172, (S)-3-(4-amino-4,6-dihydrospiro[cyclopenta[d]thiazole-5,4′-piperidin]-1′-yl)-6-((5-chloro-3-(2-methoxyethyl)-4-oxo-3,4-dihydroquinazolin-6-yl)thio)pyrazine-2-carboxamide], the figures for the IC50 (on SHP2 (full length); in assay [1] (1.5 h)) were less than 3 nM and less than 45 nM, respectively.
The like results for `C[C@@H]1OCC2(CCN(c3cnc(Sc4ccc5ncn(Cc6ccncc6)c(=O)c5c4Cl)cn3)CC2)[C@@H]1N` [Example 39, 6-((5-((3S,4S)-4-amino-3-methyl-2-oxa-8-azaspiro[4.5]decan-8-yl)pyrazin-2-yl)thio)-5-chloro-3-(pyridin-4-ylmethyl)quinazolin-4(3H)-one] were, in that order, 3 to 100 nM and 45 to 1500 nM.
The like results for `C[C@@H]1OCC2(CCN(c3cnc(Sc4ccc5ncn(CCN6CCOC6=O)c(=O)c5c4Cl)cn3)CC2)[C@@H]1N` [Example 114] were, in that order, less than 3 nM and less than 45 nM.
The like results for `C[C@@H]1OCC2(CCN(c3cnc(Sc4ccc5ncn(Cc6cccnc6N)c(=O)c5c4Cl)cn3)CC2)[C@@H]1N` [Example 52, 6-((5-((3S,4S)-4-amino-3-methyl-2-oxa-8-azaspiro[4.5]decan-8-yl)pyrazin-2-yl)thio)-3-((2-aminopyridin-3-yl)methyl)-5-chloroquinazolin-4(3H)-one] were, in that order, 3 to 100 nM and 45 to 1500 nM.
Consider `Cn1cc2c(Cl)c(Sc3cnc(N4CCC(C)(N)CC4)cn3)ccc2n1` [Example 25, 1-(5-((4-chloro-2-methyl-2H-indazol-5-yl)thio)pyrazin-2-yl)-4-methylpiperidin-4-amine], for which the results for the IC50 (on SHP2 (full length); in assay [1] (1.5 h)) were 3 to 100 nM and 45 to 1500 nM, respectively.
The corresponding values for `COC(C)Cn1cnc2ccc(Sc3ncc(N4CCC5(CC4)Cc4ncsc4[C@H]5N)nc3N)c(Cl)c2c1=O` (stereo partly shown) [Example 176] are less than 3 nM and less than 45 nM.
The corresponding values for `Cn1c(N2CCN[C@@H](CN)C2)nc(N)c(Sc2cccc(Cl)c2Cl)c1=O` [Example 196] are greater than 100 nM and greater than 1500 nM.
The like results for `COCCn1cnc2ccc(Sc3cnc(N4CCC5(CC4)Cc4ncccc4[C@H]5N)c(CO)n3)c(Cl)c2c1=O` [Example 168, (S)-6-((5-(5-amino-5,7-dihydrospiro[cyclopenta[b]pyridine-6,4′-piperidin]-1′-yl)-6-(hydroxymethyl)pyrazin-2-yl)thio)-5-chloro-3-(2-methoxyethyl)quinazolin-4(3H)-one] were, in that order, less than 3 nM and less than 45 nM.
Turning to `N[C@@H]1c2scnc2CC12CCN(c1cnc(Sc3ccc4ncn(CC5CCOCC5)c(=O)c4c3Cl)cn1)CC2` [Example 149], the IC50 was less than 3 nM at SHP2 (full length) and less than 45 nM in assay [1] (1.5 h).
The like results for `C[C@@H]1OCC2(CCN(c3cnc(Sc4ccc5ncn(Cc6ccnc(C#N)c6)c(=O)c5c4Cl)cn3)CC2)[C@@H]1N` [Example 71, 4-((6-((5-((3S,4S)-4-amino-3-methyl-2-oxa-8-azaspiro[4.5]decan-8-yl)pyrazin-2-yl)thio)-5-chloro-4-oxoquinazolin-3(4H)-yl)methyl)picolinonitrile] were, in that order, less than 3 nM and less than 45 nM.
The corresponding values for `C[C@@H]1OCC2(CCN(c3cnc(Sc4ccc5ncn(Cc6ccc(N)nc6)c(=O)c5c4Cl)cn3)CC2)[C@@H]1N` [Example 48, 6-((5-((3S,4S)-4-amino-3-methyl-2-oxa-8-azaspiro[4.5]decan-8-yl)pyrazin-2-yl)thio)-3-((6-aminopyridin-3-yl)methyl)-5-chloroquinazolin-4(3H)-one] are less than 3 nM and less than 45 nM.
The corresponding values for `COc1cccc(Cn2cnc3ccc(Sc4cnc(N5CCC6(CC5)CO[C@@H](C)[C@H]6N)cn4)c(Cl)c3c2=O)c1F` [Example 70, 6-((5-((3S,4S)-4-amino-3-methyl-2-oxa-8-azaspiro[4.5]decan-8-yl)pyrazin-2-yl)thio)-5-chloro-3-(2-fluoro-3-methoxybenzyl)quinazolin-4(3H)-one] are less than 3 nM and less than 45 nM.
For the molecule `COCCn1cnc2ccc(Sc3cnc(N4CCC5(CC4)CO[C@@H](C)[C@H]5N)cn3)c(Cl)c2c1=O` [Example 64, 6-((5-((3S,4S)-4-amino-3-methyl-2-oxa-8-azaspiro[4.5]decan-8-yl)pyrazin-2-yl)thio)-5-chloro-3-(2-methoxyethyl)quinazolin-4(3H)-one], the IC50 was less than 3 nM on SHP2 (full length) and less than 45 nM in assay [1] (1.5 h).
The like results for `CC(N)CN1CCN(c2nc(N)c(Sc3cccc(Cl)c3Cl)c(=O)n2C)CC1` (stereo not shown) [Example 202, 6-amino-2-(4-(2-aminopropyl)piperazin-1-yl)-5-((2,3-dichlorophenyl)thio)-3-methylpyrimidin-4(3H)-one] were, in that order, greater than 100 nM and greater than 1500 nM.
As to `C[C@@H]1OCC2(CCN(c3cnc(Sc4ccc5ncn(Cc6nccs6)c(=O)c5c4Cl)cn3)CC2)[C@@H]1N` [Example 35, 6-((5-((3S,4S)-4-amino-3-methyl-2-oxa-8-azaspiro[4.5]decan-8-yl)pyrazin-2-yl)thio)-5-chloro-3-(thiazol-2-ylmethyl)quinazolin-4(3H)-one], the IC50 was less than 3 nM at SHP2 (full length) and less than 45 nM in assay [1] (1.5 h).
Turning to `CC(C)(O)Cn1cnc2ccc(Sc3cnc(N4CCC5(CC4)Cc4ncsc4[C@@H]5N)cn3)c(Cl)c2c1=O` [Example 146], the values for the IC50 (on SHP2 (full length); in assay [1] (1.5 h)) were 3 to 100 nM and 45 to 1500 nM, respectively.
`Cn1c(N2CCCN(CCN)CC2)nc(N)c(Sc2cccc(Cl)c2Cl)c1=O` [Example 200, 6-amino-2-(4-(2-aminoethyl)-1,4-diazepan-1-yl)-5-((2,3-dichlorophenyl)thio)-3-methylpyrimidin-4(3H)-one]: the IC50 is greater than 100 nM on SHP2 (full length) and greater than 1500 nM in assay [1] (1.5 h).
In the case of `N[C@H]1c2ccccc2CC12CCN(c1cnc(Sc3ccc4ncn(CC5CCOC5)c(=O)c4c3Cl)cn1)CC2` (stereo partly drawn) [Example 104, 6-((5-((R)-1-amino-1,3-dihydrospiro(indene-2,4′-piperidin]-1′-yl]pyrazin-2-yl]thio)-5-chloro-3-((tetrahydrofuran-3-yl)methyl)quinazolin-4(3H)-one], the values for the IC50 (at SHP2 (full length); in assay [1] (1.5 h)) were less than 3 nM and less than 45 nM, respectively.
The corresponding values for `C[C@@H]1OCC2(CCN(c3cnc(Sc4ccc5ncn(CCC(F)(F)F)c(=O)c5c4Cl)cn3)CC2)[C@@H]1N` [Example 113] are less than 3 nM and less than 45 nM.
The corresponding values for `C[C@@H]1OCC2(CCN(c3cnc(Sc4ccc5ncn(CN6CCOCC6)c(=O)c5c4Cl)cn3)CC2)[C@@H]1N` [Example 78, 6-((5-((3S,4S)-4-amino-3-methyl-2-oxa-8-azaspiro[4.5]decan-8-yl)pyrazin-2-yl)thio)-5-chloro-3-(morpholinomethyl)quinazolin-4(3H)-one] are less than 3 nM and less than 45 nM.
Turning to `C[C@@H]1OCC2(CCN(c3cnc(Sc4ccc5ncn(CC(O)CO)c(=O)c5c4Cl)cn3)CC2)[C@@H]1N` (stereo partly drawn) [Example 122, 6-((5-((3S,4S)-4-amino-3-methyl-2-oxa-8-azaspiro[4,5]decan-8-yl)pyrazin-2-yl)thio)-5-chloro-3-(2,3-dihydroxypropyl)quinazolin-4(3H)-one], the IC50 on SHP2 (full length) was less than 3 nM; in assay [1], less than 45 nM.
Take `C[C@@H]1OCC2(CCN(c3cnc(Sc4ccc5ncn(C6CCCCC6)c(=O)c5c4Cl)cn3)CC2)[C@@H]1N` [Example 91, 6-((5-((3S,4S)-4-amino-3-methyl-2-oxa-8-azaspiro[4.5]decan-8-yl)pyrazin-2-yl)thio)-5-chloro-3-cyclohexylquinazolin-4(3H)-one]: the IC50 at SHP2 (full length) was 3 to 100 nM; in assay [1] (1.5 h), 45 to 1500 nM.

The values are drawn from patent US12029739B2, “SHP2 inhibitor and use thereof” (KANAPH THERAPEUTICS INC., priority 2021, dated 2024).
